Test results from patent US4619943A, “Neolignans of Saururus cernuus L and analogues thereof” (priority 1984, dated 1986).

Legend:
[1] = Potentiation of pentobarbital sleeping time; type: in vivo, mice; parameters: Sleeping Time, Treated: unit not given here
Procedure: SC-8 has the ability to potentiate the sedative activity of pentobarbital. The procedure employed is that of Turner (R. A. Turner, Screening Methods in Pharmacology, Academic Press, New York, p. 302 (1965)), in which three groups of mice were injected ip with the drug at three levels and a control group with saline. […] The sleeping time of each was measured as the interval between the loss and recovery of the righting reflex, and activity is defined as at least a 200% prolongation of sleeping time.

[2] = system: southern armyworm (Spodoptera eridania); test: Insecticidal activity against southern armyworm; type: in vivo; conditions: both application rates, 1000 and 500 ppm, 14 days
Procedure: (§1) The present compounds were tested for insecticidal activity against cabbage looper (Trichoplusia ni [Hubner]), and southern armyworm (Spodoptera eridania) at application rates of 1000 and 500 ppm. The tests were conducted in petri dishes containing a solid food source in which the test compounds had been incorporated. The petri dishes containing the treated food source were infested with second instar larvae of southern armyworms or cabbage loopers. Ten larvae per replicate and two replicates per test rate were used. Mortality data were taken 14 days after infestation.

[3] = system: cabbage looper (Trichoplusia ni [Hubner]); test: Insecticidal activity against cabbage looper; type: in vivo; conditions: Trichoplusia ni, 336 h, second instar larvae, 14 days
Procedure: as §1

[4] = Antiamphetamine activity (method of Weissman et al., mice instead of rats); type: in vivo
Procedure: Neuroleptic drugs are said to bind to postsynaptic dopamine receptors in the brain, thereby blocking dopaminergic transmission. […] Based on this, an assay for possible neuroleptic activity was developed and is commonly used. […] 151, 339 (1966)), except that mice were used instead of rats. A comparison under the same conditions was also made of the antiamphetamine activity of a standard neuroleptic drug, haloperidol, which gave an ED50 value of 0.5 mg/Kg (Table 2).

[5] = system: mice; test: Neuroleptic / CNS-depressant activity in experimental animals (general statements); type: in vivo
[6] = system: mice; test: Acute toxicity (LD50) in mice, procedure of Turner; type: in vivo, male Swiss mice

COc1ccc(C(O)C(C)Oc2ccc([C@@H]3O[C@@H](c4ccc(OC(C)C(O)c5ccc(OC)c(OC)c5)c(OC)c4)[C@@H](C)[C@@H]3C)cc2OC)cc1OC (stereo partly drawn) [SC-8, 2α,5β-bis[3-methoxy-4-{threo-3-hydroxy-3-(3,4-dimethoxyphenyl)}isopropoxyphenyl]-3α,4β-dimethyltetrahydrofuran]
% Increase of Sleeping Time ([1]; SC-8 0.01 mg/Kg ip, pentobarbital 40 mg/Kg): 175%
Sleeping Time, Treated ([1]; SC-8 0.01 mg/Kg ip, pentobarbital 40 mg/Kg, control 12.0): 21.0
% Increase of Sleeping Time ([1]; SC-8 0.06 mg/Kg ip, pentobarbital 40 mg/Kg): 217%
Sleeping Time, Treated ([1]; SC-8 0.06 mg/Kg ip, pentobarbital 40 mg/Kg, control 12.0): 26.0
% Increase of Sleeping Time ([1]; SC-8 0.125 mg/Kg ip, pentobarbital 40 mg/Kg): 158%
Sleeping Time, Treated ([1]; SC-8 0.125 mg/Kg ip, pentobarbital 40 mg/Kg, control 12.0): 19.0
% Increase of Sleeping Time ([1]; SC-8 0.25 mg/Kg ip, pentobarbital 40 mg/Kg): 304%
Sleeping Time, Treated ([1]; SC-8 0.25 mg/Kg ip, pentobarbital 40 mg/Kg, control 10.8): 32.8
% Increase of Sleeping Time ([1]; SC-8 0.4 mg/Kg ip, pentobarbital 42 mg/Kg): 280%
Sleeping Time, Treated ([1]; SC-8 0.4 mg/Kg ip, pentobarbital 42 mg/Kg, control 16): 44.8
% Increase of Sleeping Time ([1]; SC-8 0.5 mg/Kg ip, pentobarbital 40 mg/Kg): 357%
Sleeping Time, Treated ([1]; SC-8 0.5 mg/Kg ip, pentobarbital 40 mg/Kg, control 10.8): 36.6
% Increase of Sleeping Time ([1]; SC-8 1.0 mg/Kg ip, pentobarbital 40 mg/Kg): 300%
Sleeping Time, Treated ([1]; SC-8 1.0 mg/Kg ip, pentobarbital 40 mg/Kg, control 10.8): 32.4
% Increase of Sleeping Time ([1]; SC-8 4.0 mg/Kg ip, pentobarbital 42 mg/Kg): 857%
Sleeping Time, Treated ([1]; SC-8 4.0 mg/Kg ip, pentobarbital 42 mg/Kg, control 16): 140
prolongation of pentobarbital-sleeping time (conclusion) ([1]; dose range 1.0-0.05 mg/Kg): significant prolongation
potentiating sedatives of the pentobarbital type (summary) ([1]; summary statement, no dose): significant activity
insecticidal activity, southern armyworm [2]: inactive
mortality at 500 ppm ([3]; 500 ppm in food): 90%
mortality at 1000 ppm ([3]; 1000 ppm in food): 100%
ED50 ([4]; Mus musculus, mice, inhibition of amphetamine-induced agitation, stereotypy, body-hydration): 0.2 mg/kg
% Inhibition (antiamphetamine activity) ([4]; mice, dose 0.03 mg/Kg): 20%
% Inhibition (antiamphetamine activity) ([4]; mice, dose 0.1 mg/Kg): 40%
% Inhibition (antiamphetamine activity) ([4]; mice, dose 0.3 mg/Kg): 60%
% Inhibition (antiamphetamine activity) ([4]; mice, dose 0.5 mg/Kg): 60%
% Inhibition (antiamphetamine activity) ([4]; mice, dose 1.0 mg/Kg): 70%
% Inhibition (antiamphetamine activity) ([4]; mice, dose 1.2 mg/Kg): 80%
% Inhibition (antiamphetamine activity) ([4]; mice, dose 1.5 mg/Kg): 80%
inhibiting hyperactivity, agitation, and other effects induced by CNS stimulants of the amphetamine class (summary) ([4]; summary statement, no dose): significant activity
CNS-depressant activity ([5]; experimental animals / mice): useful CNS-depressant activity
neuroleptic activity ([5]; mouse, in vivo): neuroleptically active
LD10 ([6]; mice): 4 mg/kg
toxicity by the oral route ([6]; mice, oral, dose range of 10-20 mg/Kg): toxic
absorbability following oral administration ([6]; oral, inferred from oral toxicity at 10-20 mg/Kg): ready absorbability
